“Also recorded” adds a separate entry of the source.
Assays:
in vitro = details: dog
HCMV = HCMV inhibition assay on HELF cells; type: cell-based, HCMV strain Towne; details: Human betaherpesvirus 5, HELF
Protocol: HELF cells were pre-plated in a 96-well plate. The following day concentrations of compounds ranging from 50 μM to 0.0001 μM in DMSO were mixed with HCMV (MOI 0.005 pfu/cell) and incubated for 1 hour at 37° C. The mixtures were subsequently added to the cells, which were then incubated at 37° C. for 3 h; monolayers were then washed and overlaid with 1.2% methylcellulose medium supplemented with 3% FCS and 1 mM sodium pyruvate. After five days incubation, cells were observed under an inverted Zeiss LSM510 fluorescence microscope (Zeiss, Oberkochen, Germany) and the EC50 were calculated by comparing GFP positive cells in treated and untreated wells. The effective concentration producing 50% reduction in plaque formation (EC50) was determined using Prism software. The selectivity index (SI) was calculated by dividing the CC50 by the EC50 value.

[1] = Cell viability (MTS) assay, HeLa cells; type: cell-based, human; details: human, HeLa cells; conditions of the HPV-16 assay
Protocol: (§1) Cell viability was measured using the MITS [3-(4,5-dimethylthiazol-2-yl)-5-(3 carboxy methoxy phenyl)-2-(4-sulfophenyl)-2H-tetrazolium] assay. Cell cultures were seeded in 96-well plates and were incubated with different concentrations of compounds of the invention in triplicate under the same experimental conditions described for the antiviral assays. Cell viability was determined using the CellTiter 96 Proliferation Assay Kit (Promega, Madison, WI, USA) according to the manufacturer's instructions. Absorbances were measured using a Microplate Reader (Model 680, BIORAD) at 490 nm. The effect on cell viability at different concentrations of the compound was expressed as a percentage, by comparing absorbances of treated cells with those of cells incubated with culture medium and equal volumes of vehicle. The 50% cytotoxic concentrations (CC50) and 95% confidence intervals (CIs) were determined using Prism software (Graph-Pad Software, San Diego, CA).

HeLa cells = test: Cell viability (MTS) assay, HeLa cells; type: cell-based, human; details: conditions of the Ad5 assay
Protocol: as §1

[2] = Cell viability (MTS) assay, Hep-2 cells; type: cell-based; details: human, conditions of the RSV assay
Protocol: as §1

HIV Strain NL4-3 = test: HIV-1 inhibition assay, strain NL4-3, TZM-bl cells, CPRG readout; type: cell-based; details: Human immunodeficiency virus 1, NL43, virus pretreated 1 h at 37° C. with compound
Protocol: The human TZM-bl indicator cell line (obtained from the NIH AIDS reagents program, cat. Nr 8129, www.aidsreagent.org) was maintained at 37° C. and 5% CO2 in Dulbecco's modified Eagle's medium (DMEM) medium containing 10% fetal bovine serum, 50 μg/ml penicillin, and 50 μg/ml streptomycin. The HIV-1 laboratory strains NL (AD8) (NIH AIDS reagents program, cat. Nr, 11346) and NL4.3 (NIH AIDS reagents program, cat. Nr. 114) were titrated as previously reported by Tiberi et al (2014). Briefly, serial 5-fold dilutions of each virus were made in quadruplicate wells in 96-well culture plates, in a total volume of 100 μl of growth medium (DMEM), for a total of 8 dilution steps. Freshly trypsinized cells (20,000 cells in 100 μl of growth medium containing 75 μg/mL DEAE-dextran) were added to each well, and the plates were incubated at 37° C. in a humidified 5% CO2-95% air environment. After 48 h of incubation, the medium was removed and viral infection was quantified using a β-galactosidase (CPRG) assay (Roche). Twenty thousand TZM-bl cells/well were seeded in 96-well plates in complete DMEM supplemented with 30 μg/ml DEAE-dextran (Sigma-Aldrich). Three hundred times the 50% tissue culture infective dose (TCID50)/ml of each strain was pretreated for 1 h at 37° C. with six serial dilutions (10000 nM, 2000 nM, 400 nM, 80 nM, 16 nM, 3.2 nM) and then added to the cells. Vehicle (0.1% dimethyl sulfoxide [DMSO])-treated cells served as a negative control. […] After 2 days, viral infection was quantified using a CPRG assay (Roche cat nr 11379119103). The inhibitory curves were fitted by nonlinear regression, allowing for the calculation of the 50% effective concentration (EC50) using the Prism software. To evaluate the cell toxicity of the compounds, the metabolic XTT [2,3-bis-(2-methoxy-4-nitro-5-sulfophenyl)-2H-tetrazolium-5-carboxanilide] test (Sigma-Aldrich) was performed according to the manufacturer's instructions.

[3] = Lipoperoxidation test (TBA assay)
Protocol: To evaluate the lipid oxidation capability of 15b, a lipoperoxidation test was carried out.
The effect of 15b was evaluated toward the oxidation of linoleic acid, incorporated in DPPC liposomes, using TBA assay. The assay is based on the reactivity of malondialdehyde (MDA), a colorless end-product of degradation, with 2-thiobarbituric acid (TBA) to produce a pink adduct (TBA-MDA-TBA) that absorbs at 535 nm. […] MDA was detected spectrophotometrically according to methods described in literature (Boon-Huat Bay, Yuan-Kun Lee, Benny Kwong-Huat Tan, Eng-Ang Ling, Lipid peroxidative stress and antioxidative enzymes in brains of milk-supplemented rats, Neuroscience Letters 277 (1999) 127-130).
15b was incubated at 37° C. for 2 h with a 0.5% linoleic acid containing liposome aqueous dispersion (Cagno, V.; Tintori, C.; Civra, A.; Cavalli, R.; Tiberi, M.; Botta, L.; Brai, A.; Poli, G.; Tapparel, C.; Lembo, D.; et al. Novel Broad Spectrum Virucidal Molecules against Enveloped Viruses. 2018). […] The organic supernatant was evaluated by spectrophotometry.
The calibration curve of TBA-MDA-TBA complex was obtained using a MDA precursor 1,1,3,3-tetraethoxypropane. […] The solutions were subjected to TBA assay and analyzed at spectrophotometer. […]

[4] = Cell viability (MTS) assay, Huh-7 cells; type: cell-based; details: human, conditions of the DENV-2 assay (Table 6)
Protocol: as §1

HSV-2 = test: Binding of virus to cell (ELISA, immunofluorescence); type: cell-based, Herpes 2 virus (HSV-2); details: 10 μM, HSV-2, Vero cells
Protocol: Vero Cells were plated in 96 well plates. The following day 10 μM of compound 15b in DMSO and HSV-2 (MOI 10 pfu/cell) were incubated for 1 h at 37° C. and subsequently added on cells for 2 hours at 4° C. Cells were then fixed with 4% paraformaldehyde, air dried, and blocked with 5% bovine serum albumin (BSA) in phosphate-buffered saline (PBS)-Tween. Binding of virus to vero cells was detected using the polyclonal HSV-2 antibody (Dako, Denmark) (diluted 1:250) incubated for 1 h at room temperature, washed three times with PBS-Tween, and incubated for 1 h at 37° C. with anti-rabbit conjugated to horseradish peroxidase (1:500). At the end of incubation, plates were washed three times with PBS-Tween, ABTS[2,2-azinobis(3-ethyl benz thiazoline sulfonic acid)] (A1888 SIGMA ALDRICH) substrate was added for 30 minutes (Thermo Scientific, Rockford, IL), and the absorbance at 405 nm was read.
Vero cells were pre-plated on coverslips and the following day the binding or entry protocol described above was applied. […] Rhodamine conjugated anti-rabbit IgG (Santa Cruz) was then added on cells for 1 h at 37° C. following 3 washes coverslips were mounted on microscope glasses and observed with Zeiss LSM510 fluorescence microscope (Zeiss, Oberkochen, Germany) and images were acquired (FIG. 3A, 3B).

SMILES: O=C1NC(=S)N(CCc2ccccc2)C(=O)/C1=C\c1ccc(-c2ccc(C(=O)O)c(O)c2)[nH]1 [Compound 15b, (Z)-4-(5-((4,6-dioxo-1-phenethyl-2-thioxotetrahydropyrimidin-5(2H)-ylidene)methyl)-1H-pyrrol-2-yl)-2-hydroxybenzoic Acid]
- CC50 (in vitro): > 300 µM
- EC50 (HCMV): 0.118 µM
- EC90 (HCMV): 0.772 µM
- CC50 [1]: > 300 µM
- CC50 (HeLa cells): > 300 µM
- CC50 [2]: 241 µM
- EC50 (HIV Strain NL4-3): 0.064 µM
- lipid oxidation capability ([3]; 37° C. for 2 h, 0.5% linoleic acid containing liposomes, MDA readout): able to oxidize polyunsaturated fatty acids
- oxidation of linoleic acid with tocopherol added ([3]; with 0.05% w/w (±)-α-tocopherol as antioxidant): reduced the oxidation of linoleic acid
- CC50 [4]: 7.9 µM
- viral binding / percentage of bound virus (HSV-2): not impairing viral binding; also recorded: the same
